Test results: US20220395497A1, “Cancer Treatment Using Camptothecin Derivatives” (priority 2019, published 2022)

Tested on: adults with recurrence of glioblastoma multiforme (GBM)
Test: Phase 2 open-label study of IV AR-67 (7.5 mg/m2 once daily for 5 days, 21-day cycle) in recurrent GBM: tumor response (MRI, MacDonald criteria), PFS, disposition. Cohort 1 = not received or not recently failed (>90 days) bevacizumab; Cohort 2 = recently (<90 days) failed bevacizumab
Format: in vivo, human
Description: The primary objective in the rapid bevacizumab failure group (<90 days) was to determine the 2-month PFS.
This solution was reconstituted in dextrose 5% in water to a final concentration between 0.06-0.6 mg/mL Drug (7.5 mg/m2) was to be given until the onset of toxicity requiring discontinuation or tumor progression. Tumor response was assessed=14d after every second cycle and before every third cycle using MRI.

Compound: CC[C@@]1(O)C(=O)OCc2c1cc1n(c2=O)Cc2c-1nc1ccc(O)cc1c2[Si](C)(C)C(C)(C)C [AR-67, (205)-7-tert-butyldimethysilyl-10-hydroxycamptothecin]
- Best Overall Response: Complete Response, patients (All Patients, N = 46): 0
- Best Overall Response: Progressive Disease, patients (All Patients, N = 46): 31
- Response at Study Completion or Discontinuation: Complete Response, patients (All Patients, N = 46): 0
- Response at Study Completion or Discontinuation: Progressive Disease, patients (All Patients, N = 46): 39
- Response at Study Completion or Discontinuation: Stable Disease, patients (All Patients, N = 46): 2
- Withdrawal due to Adverse event, patients (%) (All Patients, N = 46): 2.2%
- Withdrawal due to Death, patients (%) (All Patients, N = 46): 6.5%
- Withdrawal due to Disease progression, patients (%) (All Patients, N = 46): 69.6%
- Best Overall Response: Complete Response, patients (Cohort 1, N = 31): 0
- Best Overall Response: Partial Response, patients (Cohort 1, N = 31): 3
- Best Overall Response: Progressive Disease, patients (Cohort 1, N = 31): 20
- Best Overall Response: Stable Disease, patients (Cohort 1, N = 31): 5
- Response at Study Completion or Discontinuation: Complete Response, patients (Cohort 1, N = 31): 0
- Response at Study Completion or Discontinuation: Partial Response, patients (Cohort 1, N = 31): 1
- Response at Study Completion or Discontinuation: Progressive Disease, patients (Cohort 1, N = 31): 28
- Response at Study Completion or Discontinuation: Stable Disease, patients (Cohort 1, N = 31): 0
- Withdrawal due to Death, patients (%) (Cohort 1, N = 31): 6.5%
- Withdrawal due to Disease progression, patients (%) (Cohort 1, N = 31): 77.4%
- Best Overall Response: Complete Response, patients (Cohort 2, N = 13): 0
- Best Overall Response: Partial Response, patients (Cohort 2, N = 13): 0
- Best Overall Response: Progressive Disease, patients (Cohort 2, N = 13): 10
- Response at Study Completion or Discontinuation: Complete Response, patients (Cohort 2, N = 13): 0
- Response at Study Completion or Discontinuation: Partial Response, patients (Cohort 2, N = 13): 0
- Response at Study Completion or Discontinuation: Progressive Disease, patients (Cohort 2, N = 13): 10
- Response at Study Completion or Discontinuation: Stable Disease, patients (Cohort 2, N = 13): 2
- Withdrawal due to Adverse event, patients (%) (Cohort 2, N = 13): 7.7%
- Withdrawal due to Death, patients (%) (Cohort 2, N = 13): 7.7%
- Withdrawal due to Disease progression, patients (%) (Cohort 2, N = 13): 53.8%
- efficacy, reason for study termination (in vivo): lack of efficacy
- outcome (rGBM patients who failed bevacizumab within 90 days of last dose): fared poorly
- patients who surpassed the PFS6 endpoint (rGBM patients who had never taken bevacizumab, or had not failed bev treatment within 90 days of last dose): 20%
